Earlier results as cited in patent US11559519B2, “Tizanidine therapy system” (MEDRx Co., Ltd., priority 2018, dated 2023).

Conditions: multiple dose, placebo-controlled clinical studies

Compound: Clc1ccc2nsnc2c1NC1=NCCN1 [tizanidine]
- sedation rated as severe: 10%
- patients who reported sedation as an adverse event (patients receiving any dose): 48%
